Results taken from paper doi:10.64898/2025.12.08.692997v2 (biorxiv, 2025).
pIC50, pKi: −log10 of the molar value. Structures can show the parent of a compound that is named as a salt. Where two headings read alike, the source gives them in different places. Values belong to the compound of their own block, whether it stands above or below them.

Assays:
[1] = target: T1, human EphB2-His ectodomain - human EphrinB2-Fc ectodomain (EphB2-EphrinB2 tetramer) (Homo sapiens, UniProt P29323+P52799); assay: biochemical; conditions: Octet IC50 data EB2-EphB2 (Relative)
T1 sequence (P52799 28-229): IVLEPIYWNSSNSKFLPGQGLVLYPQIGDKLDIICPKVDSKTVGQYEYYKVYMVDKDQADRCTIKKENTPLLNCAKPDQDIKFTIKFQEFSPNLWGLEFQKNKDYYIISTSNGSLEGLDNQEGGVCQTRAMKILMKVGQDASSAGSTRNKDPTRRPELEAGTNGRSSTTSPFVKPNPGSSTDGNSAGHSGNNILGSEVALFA
T1 sequence (P29323 19-543): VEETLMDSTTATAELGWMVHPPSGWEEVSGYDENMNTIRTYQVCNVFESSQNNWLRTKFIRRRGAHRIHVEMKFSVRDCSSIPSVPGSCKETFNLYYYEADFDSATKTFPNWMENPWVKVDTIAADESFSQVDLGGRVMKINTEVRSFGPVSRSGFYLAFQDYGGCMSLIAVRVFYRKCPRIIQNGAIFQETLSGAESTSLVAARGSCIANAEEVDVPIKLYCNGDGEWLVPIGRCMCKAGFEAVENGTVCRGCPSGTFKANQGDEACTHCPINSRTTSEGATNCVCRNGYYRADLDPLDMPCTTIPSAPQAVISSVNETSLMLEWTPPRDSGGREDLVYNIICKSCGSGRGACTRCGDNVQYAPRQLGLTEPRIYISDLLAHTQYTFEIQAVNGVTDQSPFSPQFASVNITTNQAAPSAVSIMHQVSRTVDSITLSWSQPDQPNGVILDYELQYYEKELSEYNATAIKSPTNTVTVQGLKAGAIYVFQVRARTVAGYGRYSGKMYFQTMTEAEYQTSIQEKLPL

[2] = target: T1, human EphB2-His ectodomain - human EphrinB2-Fc ectodomain (EphB2-EphrinB2 tetramer); assay: biochemical; conditions: Octet IC50 data EB2-EphB2 (Absolute)
[3] = target: T1, human EphB2-His ectodomain - human EphrinB2-Fc ectodomain (EphB2-EphrinB2 tetramer); assay: biochemical
[4] = target: T1, human EphB2-His ectodomain - human EphrinB2-Fc ectodomain (EphB2-EphrinB2 tetramer); assay: biochemical; remark: listed apart in the source
[5] = target: rat EphB1-Fc ectodomain - mouse EphrinB2-His ectodomain (EphB1-EphrinB2) (Rattus norvegicus; Mus musculus, UniProt P09759+P52800); assay: biochemical
rat EphB1-Fc ectodomain - mouse EphrinB2-His ectodomain (EphB1-EphrinB2), sequence (P52800 29-232): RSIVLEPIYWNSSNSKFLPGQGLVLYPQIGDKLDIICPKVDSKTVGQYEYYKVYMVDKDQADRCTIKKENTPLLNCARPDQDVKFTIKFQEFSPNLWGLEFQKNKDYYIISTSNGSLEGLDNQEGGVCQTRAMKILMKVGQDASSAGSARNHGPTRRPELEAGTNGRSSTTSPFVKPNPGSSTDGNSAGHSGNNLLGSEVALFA
rat EphB1-Fc ectodomain - mouse EphrinB2-His ectodomain (EphB1-EphrinB2), sequence (P09759 18-538): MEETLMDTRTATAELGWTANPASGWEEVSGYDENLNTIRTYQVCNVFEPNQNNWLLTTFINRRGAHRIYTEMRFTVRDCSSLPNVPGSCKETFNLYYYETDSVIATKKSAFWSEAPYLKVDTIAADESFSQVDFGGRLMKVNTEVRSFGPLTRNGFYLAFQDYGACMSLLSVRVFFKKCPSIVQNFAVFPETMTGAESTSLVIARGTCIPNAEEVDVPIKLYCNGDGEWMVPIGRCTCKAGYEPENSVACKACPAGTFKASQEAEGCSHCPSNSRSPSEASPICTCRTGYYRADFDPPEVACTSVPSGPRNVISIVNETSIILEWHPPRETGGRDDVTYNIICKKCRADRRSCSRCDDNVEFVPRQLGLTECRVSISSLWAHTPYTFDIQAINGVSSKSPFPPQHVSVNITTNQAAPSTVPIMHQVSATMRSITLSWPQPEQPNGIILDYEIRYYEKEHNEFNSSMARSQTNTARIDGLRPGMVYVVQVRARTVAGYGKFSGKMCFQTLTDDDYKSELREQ

[6] = target: T1, human EphB2-His ectodomain - human EphrinB2-Fc ectodomain (EphB2-EphrinB2 tetramer); assay: biochemical; conditions: EphrinB2-EphB2 IC50 (Absolute, µM)
[7] = target: T1, human EphB2-His ectodomain - human EphrinB2-Fc ectodomain (EphB2-EphrinB2 tetramer); assay: biochemical; conditions: EphrinB2-EphB2 IC50 (Relative, µM)
[8] = target: EphrinB2 of mouse pancreatic stellate cells stimulated with mouse EphB2-Fc-His (Mus musculus, UniProt P52800+P54763); assay: % pEphrinB2 by IP and immunoblot; type: cell-based
EphrinB2 of mouse pancreatic stellate cells stimulated with mouse EphB2-Fc-His, sequence (P52800 29-336): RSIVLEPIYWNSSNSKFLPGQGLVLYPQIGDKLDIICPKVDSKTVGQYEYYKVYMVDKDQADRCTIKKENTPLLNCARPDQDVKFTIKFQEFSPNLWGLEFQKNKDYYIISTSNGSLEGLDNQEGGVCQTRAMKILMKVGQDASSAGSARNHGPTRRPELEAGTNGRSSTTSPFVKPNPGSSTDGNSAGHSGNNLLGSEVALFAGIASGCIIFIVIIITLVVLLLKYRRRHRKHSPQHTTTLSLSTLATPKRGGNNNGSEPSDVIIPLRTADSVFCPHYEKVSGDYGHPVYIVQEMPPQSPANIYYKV
EphrinB2 of mouse pancreatic stellate cells stimulated with mouse EphB2-Fc-His, sequence (P54763 19-540): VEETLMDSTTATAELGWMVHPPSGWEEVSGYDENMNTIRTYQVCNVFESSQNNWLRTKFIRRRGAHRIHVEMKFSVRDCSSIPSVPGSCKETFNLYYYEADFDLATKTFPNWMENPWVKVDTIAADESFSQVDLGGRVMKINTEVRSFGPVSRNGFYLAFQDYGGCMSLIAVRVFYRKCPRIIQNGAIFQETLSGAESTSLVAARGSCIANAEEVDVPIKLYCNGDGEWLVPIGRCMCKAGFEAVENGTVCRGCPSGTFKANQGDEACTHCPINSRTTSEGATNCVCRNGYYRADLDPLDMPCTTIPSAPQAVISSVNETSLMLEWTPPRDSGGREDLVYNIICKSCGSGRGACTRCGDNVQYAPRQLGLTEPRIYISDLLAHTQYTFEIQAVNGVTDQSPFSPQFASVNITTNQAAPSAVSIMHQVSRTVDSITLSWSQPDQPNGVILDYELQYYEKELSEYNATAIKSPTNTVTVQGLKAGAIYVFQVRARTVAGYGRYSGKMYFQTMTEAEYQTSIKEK

[9] = target: T1, human EphB2-His ectodomain - human EphrinB2-Fc ectodomain (EphB2-EphrinB2 tetramer); assay: biochemical; remark: listed apart in the source
[10] = target: T1, human EphB2-His ectodomain - human EphrinB2-Fc ectodomain (EphB2-EphrinB2 tetramer); assay: biochemical; remark: listed apart in the source
[11] = target: T1, human EphB2-His ectodomain - human EphrinB2-Fc ectodomain (EphB2-EphrinB2 tetramer); assay: biochemical; remark: listed apart in the source
[12] = target: T1, human EphB2-His ectodomain - human EphrinB2-Fc ectodomain (EphB2-EphrinB2 tetramer); assay: biochemical; remark: listed apart in the source
[13] = target: T1, human EphB2-His ectodomain - human EphrinB2-Fc ectodomain (EphB2-EphrinB2 tetramer); assay: biochemical; remark: listed apart in the source
[14] = target: T1, human EphB2-His ectodomain - human EphrinB2-Fc ectodomain (EphB2-EphrinB2 tetramer); assay: biochemical; remark: listed apart in the source
[15] = target: T1, human EphB2-His ectodomain - human EphrinB2-Fc ectodomain (EphB2-EphrinB2 tetramer); assay: biochemical; remark: listed apart in the source
[16] = target: T1, human EphB2-His ectodomain - human EphrinB2-Fc ectodomain (EphB2-EphrinB2 tetramer); assay: biochemical; remark: listed apart in the source
[17] = target: T1, human EphB2-His ectodomain - human EphrinB2-Fc ectodomain (EphB2-EphrinB2 tetramer); assay: biochemical; remark: listed apart in the source
[18] = target: T1, human EphB2-His ectodomain - human EphrinB2-Fc ectodomain (EphB2-EphrinB2 tetramer); assay: biochemical; remark: listed apart in the source
[19] = target: T1, human EphB2-His ectodomain - human EphrinB2-Fc ectodomain (EphB2-EphrinB2 tetramer); assay: biochemical; remark: listed apart in the source

SMILES: Clc1cc2c(c3ncccc13)OCN(C1CCCC1)C2 [1b, 6-chloro-3-cyclopentyl-3,4-dihydro-2H-[1,3]oxazino[5,6-h]quinoline]
pIC50 [1]: 5.92
pIC50 [2]: 5.86

SMILES: O=C(Oc1c(Cl)cc(Cl)c2cccnc12)c1ccc([N+](=O)[O-])cc1 [4a, 5,7-dichloro-8-quinolinyl 4-nitrobenzoate]
pIC50 [3]: 4.42
pIC50 [4]: ~4.50

SMILES: O=C(O)CN(CCN(CC(=O)O)CC(=O)O)CC(=O)O [EDTA]
pIC50 [8]: 5.96

SMILES: Cc1ccnc(NC(c2cccc([N+](=O)[O-])c2)c2ccc3cccnc3c2O)c1 (stereo not drawn) [SW039339]
pIC50 [9]: < 5.49

SMILES: CCOc1cc(C(Nc2cc(C)ccn2)c2ccc3cccnc3c2O)ccc1O (stereo not drawn) [SW039498]
pIC50 [9]: < 5.49
pIC50 [10]: < 5.49

SMILES: Oc1ccc(CSc2ccccc2)c2cccnc12 [SW160569, G15]
pKi [11]: 8.43

SMILES: O=C(Oc1cccc2cccnc12)c1ccc(F)cc1 [compound 2, 8-quinolinyl 4-fluorobenzoate]
pIC50 [13]: 4.00
pIC50 [3]: < 4.00

SMILES: CC(=O)Nc1ccc(O)cc1 [compound 2, Acetaminophen]
pIC50 [12]: < 4.00

SMILES: CCN(CC)CC(=O)Nc1c(C)cccc1C [compound 4, Lidocaine hydrochloride monohydrate]
pIC50 [12]: < 4.00

SMILES: CNC[C@H](O)c1cccc(O)c1 [compound 5, Phenylephrine hydrochloride]
pIC50 [12]: < 4.00

SMILES: CN(C)CCC(c1ccc(Cl)cc1)c1ccccn1 (stereo not drawn) [compound 6, Chloropheniramine maleate]
pIC50 [12]: < 4.00

SMILES: CCCCN1COc2c(cc(Cl)c3cccnc23)C1 [compound 8, 3-butyl-6-chloro-3,4-dihydro-2H-[1,3]oxazino[5,6-h]quinoline]
pIC50 [1]: 5.98
pIC50 [2]: 5.94

SMILES: Cc1ncc(CO)c(CO)c1O [compound 8, Pyridoxine hydrochloride]
pIC50 [12]: < 4.00

SMILES: O=C(O)[C@@H](S)[C@@H](S)C(=O)O [compound 8, Succimer]
pIC50 [18]: ~4.30
pIC50 [19]: ~4.30

SMILES: Clc1cc2c(c3ncccc13)OCN(CCc1ccccc1)C2 [compound 11, 6-chloro-3-phenethyl-3,4-dihydro-2H-[1,3]oxazino[5,6-h]quinoline]
pIC50 [1]: 5.97
pIC50 [2]: 5.94

The remaining lines, values ahead:

pIC50 [1]: 6.12
pIC50 [2]: 6.07
SMILES: Clc1cc2c(c3ncccc13)OCN(C1CCCC1)C2 [1c, 6-chloro-3-cyclopentyl-3,4-dihydro-2H-[1,3]oxazino[5,6-h]quinoline]

pIC50 [1]: 6.14
pIC50 [2]: 6.09
SMILES: Clc1cc2c(c3ncccc13)OCN(CC1CCCO1)C2 (stereo not drawn) [4a, 6-chloro-3-((tetrahydrofuran-2-yl)methyl)-3,4-dihydro-2H-[1,3]oxazino[5,6-h]quinoline]

pIC50 [5]: < 4.00
IC50 [6]: > 1.6 µM
IC50 [7]: > 1.6 µM
SMILES: Oc1ccc(CN2CCOCC2)c2cccnc12 [A19, 5-(morpholinomethyl)quinolin-8-ol]

pIC50 [5]: < 4.00
IC50 [6]: > 1.6 µM
IC50 [7]: 0.81 µM
SMILES: O=S1(=O)CCN(Cc2ccc(O)c3ncccc23)CC1 [QTM . 2 HCl, 4-((8-hydroxyquinolin-1-ium-5-yl)methyl)thiomorpholin-4-ium 1,1-dioxide chloride]

pIC50 [12]: < 4.00
SMILES: CC(=O)Oc1ccccc1C(=O)O [compound 1, Aspirin]

pIC50 [1]: 6.13
pIC50 [2]: 6.07
SMILES: Clc1cc2c(c3ncccc13)OCN(Cc1cccnc1)C2 [compound 2, 6-chloro-3-(pyridin-3-ylmethyl)-3,4-dihydro-2H-[1,3]oxazino[5,6-h]quinoline]

pIC50 [14]: < 5.49
pIC50 [15]: < 5.49
SMILES: O=C(O)CN(CCOCCOCCN(CC(=O)O)CC(=O)O)CC(=O)O [compound 2, EGTA sodium salt]

pIC50 [1]: 5.75
pIC50 [2]: 5.71
SMILES: CC(C)(C)N1COc2c(cc(Cl)c3cccnc23)C1 [compound 3, 3-(tert-butyl)-6-chloro-3,4-dihydro-2H-[1,3]oxazino[5,6-h]quinoline]

pIC50 [15]: < 5.49
pIC50 [16]: ~5.49
SMILES: Oc1ccc(Cl)c2cccnc12 [compound 3, Cloxiquine]

pIC50 [17]: < 4.00
SMILES: O=C(O)c1ccc(-n2nc(-c3ccccc3O)nc2-c2ccccc2O)cc1 [compound 3, Deferasirox]

pIC50 [12]: < 4.00
SMILES: CC(C)Cc1ccc(C(C)C(=O)O)cc1 (stereo not drawn) [compound 3, Ibuprofen]

pIC50 [1]: 5.94
pIC50 [2]: 5.76
SMILES: CC1(C)CC(N2COc3c(cc(Cl)c4cccnc34)C2)CC(C)(C)N1 [compound 5, 6-chloro-3-(2,2,6,6-tetramethylpiperidin-4-yl)-3,4-dihydro-2H-[1,3]oxazino[5,6-h]quinoline]

pIC50 [12]: < 4.00
SMILES: CCc1ccc(CCOc2ccc(CC3SC(=O)NC3=O)cc2)nc1 (stereo not drawn) [compound 7, Pioglitazone hydrochloride]

pIC50 [17]: < 4.00
SMILES: COCCN(CCCCc1ccc2c(n1)NCCC2)CC[C@H](Nc1ncnc2ccccc12)C(=O)O [compound 9, Bexotegrast]

pIC50 [12]: < 4.00
SMILES: O=C(O)Cc1ccccc1Nc1c(Cl)cccc1Cl [compound 9, Diclofenac sodium salt]

pIC50 [1]: 6.13
pIC50 [2]: 6.05
SMILES: CC(c1ccccc1)N1COc2c(cc(Cl)c3cccnc23)C1 (stereo not drawn) [compound 10, 6-chloro-3-(1-phenylethyl)-3,4-dihydro-2H-[1,3]oxazino[5,6-h]quinoline]

pIC50 [12]: < 4.00
SMILES: N[C@@H](Cc1ccc(O)cc1)C(=O)O [compound 10, L-Tyrosine]

pIC50 [1]: 6.23
pIC50 [2]: 6.18
SMILES: Clc1cc2c(c3ncccc13)OCN(CCC1=CCCCC1)C2 [compound 12, 6-chloro-3-(2-(cyclohex-1-en-1-yl)ethyl)-3,4-dihydro-2H-[1,3]oxazino[5,6-h]quinoline]

pIC50 [12]: < 4.00
SMILES: Nc1nc2ncc(CNc3ccc(C(=O)N[C@@H](CCC(=O)O)C(=O)O)cc3)nc2c(=O)[nH]1 [compound 12, Folic acid]
